# Experimental data reported in patent US20220241409A1, “WATER SOLUBLE ADJUVANT AND COMPOSITION CONTAINING SAME” (Sumitomo Dainippon Pharma Co., Ltd., priority 2019, published 2022).
# Tests used:
# [1] = test system: mouse splenocyte; assay: Activation of immune cells, mouse splenocyte cytokine/chemokine production (Test 5); type: cell-based; details: 200 nmol/L, one day, compared with only DMSO
# Method: Splenocyte was derived from the spleen of a HLA-A*02:01 transgenic mouse, and cryopreserved. Cryopreserved mouse splenocyte was reconstituted, suspended in RPMI 1640 medium with 10% FBS, and seeded on a U-bottom 96 well plate at 4×10^5 cells/well. The compound prepared in Example 3 was added in the presence of 0.1% (v/v) DMSO to the wells at a final concentration of 200 nmol/L. The plate was incubated at 37° C. under an atmosphere of 5% CO2. One day after the incubation, the culture supernatant was collected. The concentration of cytokine and chemokine (GM-CSF, IFNγ, IL-6, IP-10, MCP-1, MIP-1α, MIP-1β, Rantes, and TNFα) which were included in each culture supernatant was measured with Milliplex Mouse Cytokine/Chemokine Magnetic Bead Panel kit and Luminex system in accordance with the manufacturer's protocol.
# The results are shown in FIG. 3-A to FIG. 3-I. The white bar indicates the mean number of the concentration of cytokine and chemokine in the culture supernatant from three wells to which only DMSO was added, and the black bar indicates the mean number of the concentration of cytokine and chemokine in the culture supernatant from three wells to which the compound prepared in Example 3 was added. The compound prepared in Example 3 made the yield of cytokine and chemokine higher, compared with the case of only DMSO.
# [2] = test system: mouse bone marrow-derived dendritic cell; assay: Activation of mouse bone marrow-derived dendritic cell, cytokine/chemokine production (Test 4); type: cell-based; details: 200 nmol/L, one day, compared with only DMSO
# Method: Myeloid cells were collected from the femur and tibia of HLA-A*02:01 transgenic mouse (C57BL/6CrHLA-A2.1DR1), and then suspended in RPMI 1640 medium with 10% fetal bovine serum (FBS) and 10 ng/mL of GM-CSF. The dendritic cells in the myeloid cells were incubated at 37° C. under an atmosphere of 5% CO2 for induction of differentiation. Seven days after the incubation, the cells were collected. After observing the expression of CD11c on the cell surface by flow cytometry, the cells were cryopreserved. Cryopreserved mouse bone marrow-derived dendritic cells were reconstituted, suspended in RPMI 1640 medium with 10% FBS, and seeded on a U-bottom 96 well plate at 5×10^5 cells/well. The compound prepared in Example 3 was added in the presence of 0.1% (v/v) DMSO to the wells at a final concentration of 200 nmol/L. The plate was incubated at 37° C. under an atmosphere of 5% CO2. One day after the incubation, the culture supernatant was collected. The concentration of cytokine and chemokine (IL-1p, IL-6, IL-12p40, IL-12p70, IP-10, MIP-1α, MIP-1β, Rantes, and TNFα) which were included in each culture supernatant was measured with Milliplex Mouse Cytokine/Chemokine Magnetic Bead Panel kit (Millipore) and Luminex system in accordance with the manufacturer's protocol. […]
# [3] = test system: Antigen-Specific CTL; assay: Immune response of antigen-specific CTL for peptide and tumor cell, vaccine a (Test 11); type: in vivo, mouse
# Method: The immune response of CTL induced with a vaccine comprising the present compound in the presence of tumor cells was evaluated in the following procedure. The vaccine was administered to a HLA-A*02:01 transgenic mouse to prepare splenocyte comprising an antigen peptide-specific CTL, and the immune response was evaluated by incubating the spelenocyte in the presence of tumor cells and antigen peptides.
# Specifically, vaccine a prepared like Test 6 was injected to a HLA-A*02:01 transgenic mouse intradermally at the tail base area in an amount for administering 300 μg of Compound of formula 4 per body and 225 μg of Peptide SEQ ID No. 3 per body. Or, in the step of preparing vaccine a, the compound prepared in Example 3 was added to the diluted peptide solution to prepare a vaccine, and the prepared vaccine was injected to a HLA-A*02:01 transgenic mouse intradermally at the tail base area in an amount for administering 300 μg of Compound of formula 4 per body, 225 μg of Peptide SEQ ID No. 3 per body, and 32.5 ng of the compound prepared in Example 3 per body. The administrations were done twice, which had one week interval. One week after the final administration, the mice were sacrificed with CO2 gas, and then spleens removed from the mice. A splenocyte suspension was prepared from the spleens with Complete T-cell Medium (hereinafter, CTM). The splenocytes derived from each three mice per group were mixed. The mixed splenocytes were stained with an FITC-labeled anti-CD8 antibody (BD Pharmingen) and a PE-labeled HLA tetramer (MBL) against Peptide SEQ ID NO. 1, and analyzed for peptide-specific CTLs with a flow cytometer.
# The peptide (SEQ ID No. 1) solution was added to a part of the splenocyte at a final concentration of 100 μg/mL, and the cells were stood for about one hour at 37° C., 5% CO2. After excess peptides were washed out with CTM, the peptide-pulsed splenocyte and unpulsed splenocyte were mixed at a ratio of 1:10, and the mixture was seeded on a U-bottom 96 well plate at 3.85×10^5 cells/well. A cell line (hereinafter, also referred to as LLC-HHD-WT1 tumor cells) was established by stably expressing HHD [a chimeric HLA of a human MHC (HLA-A*02:01) and a mouse MHC (H-2D^b)] and antigen peptide (SEQ ID No. 1) in a mouse Lewis lung carcinoma cell line LLC as tumor cells. X-ray (50 Gy) was irradiated to the LLC-HHD-WT1 tumor cells, and then the LLC-HHD-WT1 tumor cells were cultured in the presence of a mouse recombinant IFN-γ (100 ng/mL) for about two days and washed with CTM. […] The concentration of mouse IFN-γ in the culture supernatant was measured with an ELISA kit (R&D Systems). […] 1, and analyzed for peptide-specific CTLs with a flow cytometer.
smiles,measurement,setting,value
"CCCCOc1nc(N)c2[nH]c(=O)n(Cc3ccc(CN(C)CCOCCOCCOCCOCCO)cc3)c2n1 [Example 3, 6-amino-2-butoxy-9-{[4-(16-hydroxy-2-methyl-5,8,11,14-tetraoxa-2-azahexadecan-1-yl)phenyl]methyl}-7,9-dihydro-8H-purin-8-one]","yield of cytokine and chemokine (GM-CSF, IFNγ, IL-6, IP-10, MCP-1, MIP-1α, MIP-1β, Rantes, TNFα)",[1],higher
same,"yield of cytokine and chemokine (IL-1β, IL-6, IL-12p40, IL-12p70, IP-10, MIP-1α, MIP-1β, Rantes, TNFα)",[2],higher
same,"amount of IFN-γ produced from the CTL in the mixed culture, relative to vaccine a without compound","[3]; about three days culture with LLC-HHD-WT1 tumor cells and Peptide SEQ ID No. 1, ELISA, average of 3 wells",4.9 times
same,difference in CTL specific to Peptide SEQ ID No. 1 versus vaccine a without compound,[3]; after about three days culture with LLC-HHD-WT1 tumor cells and Peptide SEQ ID No. 1,3.6 times
same,"CTLs specific to Peptide (SEQ ID No. 1) in splenocyte, relative to vaccine a without compound","[3]; before culture, flow cytometry (tetramer), 32.5 ng per body in vaccine a, twice",1.7 times
same,change of CTL specific to Peptide SEQ ID No. 1 on culture with tumor cells,[3]; splenocytes mixed with tumor cells and cultured in the presence of Peptide SEQ ID No. 1,increased
